Laboratory results reported in PubChem BioAssay AID1963837 (Molecular Pharmacology Branch, DTP, NCI, 2024).

These compounds were tested on 843126-344-R-J1-PDC complex spheroid viability (assay: Anticancer human tumor 843126-344-R-J1-PDC patient-derived melanoma cell line growth inhibition [POLQ]). Conditions: second compound 10 µM; first compound 0.01 µM; active compounds read low.
In short: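 Growth inhibition in 3D: complex spheroids (tumor PDC, HUVEC, MSC) treated with POLQ inhibitor combinations; where Cmax unknown, highest tested concentration 10 microM, except SN-38 at 1 microM.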
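Also: spheroids exposed to drugs for seven days before readout.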

Row | SMILES | viability, T/C [%]
1 | CCc1c2c(nc3ccc(O)cc13)-c1cc3c(c(=O)n1C2)COC(=O)[C@]3(O)CC + COC1C(OC(N)=O)C(O)C(Oc2ccc3c(O)c(NC(=O)c4ccc(O)c(CC=C(C)C)c4)c(=O)oc3c2C)OC1(C)C | 62.7

Same assay, conditions: second compound 10 µM; first compound 0.0316 µM; active compounds read low

Row | SMILES | viability, T/C [%]
2 | COc1cc(C2c3cc4c(cc3C(OC3OC5COC(C)OC5C(O)C3O)C3COC(=O)C23)OCO4)cc(OC)c1O (configuration not stated) + Nc1ccc(C#CCN(C(=O)Cc2ncc(C(F)(F)F)cc2C(F)(F)F)c2ccc(F)cc2)nn1 | 81.8
3 | COc1cccc(OCCCN)c1-c1cc(Nc2cnc(C#N)cn2)n[nH]1 + Nc1ccc(C#CCN(C(=O)Cc2ncc(C(F)(F)F)cc2C(F)(F)F)c2ccc(F)cc2)nn1 | 51.9
4 | O=c1[nH]cc(F)c(=O)[nH]1 + Cc1cccc(N(C)C(=O)C2C(O)CCN2c2nc(C)cc(C(F)(F)F)c2C#N)c1 | 91.1
5 | C=CCn1c(=O)c2cnc(Nc3ccc(N4CCN(C)CC4)cc3)nc2n1-c1cccc(C(C)(C)O)n1 + COC1C(OC(N)=O)C(O)C(Oc2ccc3c(O)c(NC(=O)c4ccc(O)c(CC=C(C)C)c4)c(=O)oc3c2C)OC1(C)C | 94.8
6 | CCc1c2c(nc3ccc(O)cc13)-c1cc3c(c(=O)n1C2)COC(=O)[C@]3(O)CC + COC1C(OC(N)=O)C(O)C(Oc2ccc3c(O)c(NC(=O)c4ccc(O)c(CC=C(C)C)c4)c(=O)oc3c2C)OC1(C)C | 56.3
7 | O=c1[nH]cc(F)c(=O)[nH]1 + Nc1ccc(C#CCN(C(=O)Cc2ncc(C(F)(F)F)cc2C(F)(F)F)c2ccc(F)cc2)nn1 | 81.9
8 | COc1cc2cc(C(=O)CCC(=O)O)sc2cc1OC + COC1C(OC(N)=O)C(O)C(Oc2ccc3c(O)c(NC(=O)c4ccc(O)c(CC=C(C)C)c4)c(=O)oc3c2C)OC1(C)C | 98.8

Same assay, conditions: second compound 10 µM; first compound 0.1 µM; active compounds read low

Row | SMILES | viability, T/C [%]
9 | COc1cc(C2c3cc4c(cc3C(OC3OC5COC(C)OC5C(O)C3O)C3COC(=O)C23)OCO4)cc(OC)c1O (configuration not stated) + Nc1ccc(C#CCN(C(=O)Cc2ncc(C(F)(F)F)cc2C(F)(F)F)c2ccc(F)cc2)nn1 | 96.5
10 | COc1cccc(OCCCN)c1-c1cc(Nc2cnc(C#N)cn2)n[nH]1 + Nc1ccc(C#CCN(C(=O)Cc2ncc(C(F)(F)F)cc2C(F)(F)F)c2ccc(F)cc2)nn1 | 45.8
11 | O=c1[nH]cc(F)c(=O)[nH]1 + Cc1cccc(N(C)C(=O)C2C(O)CCN2c2nc(C)cc(C(F)(F)F)c2C#N)c1 | 85.8
12 | C=CCn1c(=O)c2cnc(Nc3ccc(N4CCN(C)CC4)cc3)nc2n1-c1cccc(C(C)(C)O)n1 + COC1C(OC(N)=O)C(O)C(Oc2ccc3c(O)c(NC(=O)c4ccc(O)c(CC=C(C)C)c4)c(=O)oc3c2C)OC1(C)C | 102
13 | CCc1c2c(nc3ccc(O)cc13)-c1cc3c(c(=O)n1C2)COC(=O)[C@]3(O)CC + COC1C(OC(N)=O)C(O)C(Oc2ccc3c(O)c(NC(=O)c4ccc(O)c(CC=C(C)C)c4)c(=O)oc3c2C)OC1(C)C | 67.5
14 | O=c1[nH]cc(F)c(=O)[nH]1 + Nc1ccc(C#CCN(C(=O)Cc2ncc(C(F)(F)F)cc2C(F)(F)F)c2ccc(F)cc2)nn1 | 86.2
15 | COc1cc2cc(C(=O)CCC(=O)O)sc2cc1OC + COC1C(OC(N)=O)C(O)C(Oc2ccc3c(O)c(NC(=O)c4ccc(O)c(CC=C(C)C)c4)c(=O)oc3c2C)OC1(C)C | 92.7

Same assay, conditions: second compound 10 µM; first compound 0.316 µM; active compounds read low

Row | SMILES | viability, T/C [%]
16 | COc1cc(C2c3cc4c(cc3C(OC3OC5COC(C)OC5C(O)C3O)C3COC(=O)C23)OCO4)cc(OC)c1O (configuration not stated) + Nc1ccc(C#CCN(C(=O)Cc2ncc(C(F)(F)F)cc2C(F)(F)F)c2ccc(F)cc2)nn1 | 78.5
17 | COc1cccc(OCCCN)c1-c1cc(Nc2cnc(C#N)cn2)n[nH]1 + Nc1ccc(C#CCN(C(=O)Cc2ncc(C(F)(F)F)cc2C(F)(F)F)c2ccc(F)cc2)nn1 | 42.8
18 | O=c1[nH]cc(F)c(=O)[nH]1 + Cc1cccc(N(C)C(=O)C2C(O)CCN2c2nc(C)cc(C(F)(F)F)c2C#N)c1 | 104
19 | C=CCn1c(=O)c2cnc(Nc3ccc(N4CCN(C)CC4)cc3)nc2n1-c1cccc(C(C)(C)O)n1 + COC1C(OC(N)=O)C(O)C(Oc2ccc3c(O)c(NC(=O)c4ccc(O)c(CC=C(C)C)c4)c(=O)oc3c2C)OC1(C)C | 91.9
20 | CCc1c2c(nc3ccc(O)cc13)-c1cc3c(c(=O)n1C2)COC(=O)[C@]3(O)CC + COC1C(OC(N)=O)C(O)C(Oc2ccc3c(O)c(NC(=O)c4ccc(O)c(CC=C(C)C)c4)c(=O)oc3c2C)OC1(C)C | 50
21 | O=c1[nH]cc(F)c(=O)[nH]1 + Nc1ccc(C#CCN(C(=O)Cc2ncc(C(F)(F)F)cc2C(F)(F)F)c2ccc(F)cc2)nn1 | 84.6
22 | COc1cc2cc(C(=O)CCC(=O)O)sc2cc1OC + COC1C(OC(N)=O)C(O)C(Oc2ccc3c(O)c(NC(=O)c4ccc(O)c(CC=C(C)C)c4)c(=O)oc3c2C)OC1(C)C | 97.8

Same assay, conditions: second compound 10 µM; first compound 1 µM; active compounds read low

Row | SMILES | viability, T/C [%]
23 | COc1cc(C2c3cc4c(cc3C(OC3OC5COC(C)OC5C(O)C3O)C3COC(=O)C23)OCO4)cc(OC)c1O (configuration not stated) + Nc1ccc(C#CCN(C(=O)Cc2ncc(C(F)(F)F)cc2C(F)(F)F)c2ccc(F)cc2)nn1 | 75.4
24 | COc1cccc(OCCCN)c1-c1cc(Nc2cnc(C#N)cn2)n[nH]1 + Nc1ccc(C#CCN(C(=O)Cc2ncc(C(F)(F)F)cc2C(F)(F)F)c2ccc(F)cc2)nn1 | 30.4
25 | O=c1[nH]cc(F)c(=O)[nH]1 + Cc1cccc(N(C)C(=O)C2C(O)CCN2c2nc(C)cc(C(F)(F)F)c2C#N)c1 | 102
26 | C=CCn1c(=O)c2cnc(Nc3ccc(N4CCN(C)CC4)cc3)nc2n1-c1cccc(C(C)(C)O)n1 + COC1C(OC(N)=O)C(O)C(Oc2ccc3c(O)c(NC(=O)c4ccc(O)c(CC=C(C)C)c4)c(=O)oc3c2C)OC1(C)C | 65
27 | CCc1c2c(nc3ccc(O)cc13)-c1cc3c(c(=O)n1C2)COC(=O)[C@]3(O)CC + COC1C(OC(N)=O)C(O)C(Oc2ccc3c(O)c(NC(=O)c4ccc(O)c(CC=C(C)C)c4)c(=O)oc3c2C)OC1(C)C | 43
28 | O=c1[nH]cc(F)c(=O)[nH]1 + Nc1ccc(C#CCN(C(=O)Cc2ncc(C(F)(F)F)cc2C(F)(F)F)c2ccc(F)cc2)nn1 | 81.9
29 | COc1cc2cc(C(=O)CCC(=O)O)sc2cc1OC + COC1C(OC(N)=O)C(O)C(Oc2ccc3c(O)c(NC(=O)c4ccc(O)c(CC=C(C)C)c4)c(=O)oc3c2C)OC1(C)C | 110

Same assay, conditions: second compound 10 µM; first compound 3.16 µM; active compounds read low

Row | SMILES | viability, T/C [%]
30 | COc1cc(C2c3cc4c(cc3C(OC3OC5COC(C)OC5C(O)C3O)C3COC(=O)C23)OCO4)cc(OC)c1O (configuration not stated) + Nc1ccc(C#CCN(C(=O)Cc2ncc(C(F)(F)F)cc2C(F)(F)F)c2ccc(F)cc2)nn1 | 61.7
31 | O=c1[nH]cc(F)c(=O)[nH]1 + Cc1cccc(N(C)C(=O)C2C(O)CCN2c2nc(C)cc(C(F)(F)F)c2C#N)c1 | 111
32 | O=c1[nH]cc(F)c(=O)[nH]1 + Nc1ccc(C#CCN(C(=O)Cc2ncc(C(F)(F)F)cc2C(F)(F)F)c2ccc(F)cc2)nn1 | 88
33 | COc1cc2cc(C(=O)CCC(=O)O)sc2cc1OC + COC1C(OC(N)=O)C(O)C(Oc2ccc3c(O)c(NC(=O)c4ccc(O)c(CC=C(C)C)c4)c(=O)oc3c2C)OC1(C)C | 107

Same assay, conditions: second compound 10 µM; first compound 10 µM; active compounds read low

Row | SMILES | viability, T/C [%]
34 | COc1cc(C2c3cc4c(cc3C(OC3OC5COC(C)OC5C(O)C3O)C3COC(=O)C23)OCO4)cc(OC)c1O (configuration not stated) + Nc1ccc(C#CCN(C(=O)Cc2ncc(C(F)(F)F)cc2C(F)(F)F)c2ccc(F)cc2)nn1 | 42.3
35 | O=c1[nH]cc(F)c(=O)[nH]1 + Cc1cccc(N(C)C(=O)C2C(O)CCN2c2nc(C)cc(C(F)(F)F)c2C#N)c1 | 90
36 | O=c1[nH]cc(F)c(=O)[nH]1 + Nc1ccc(C#CCN(C(=O)Cc2ncc(C(F)(F)F)cc2C(F)(F)F)c2ccc(F)cc2)nn1 | 76.7
37 | COc1cc2cc(C(=O)CCC(=O)O)sc2cc1OC + COC1C(OC(N)=O)C(O)C(Oc2ccc3c(O)c(NC(=O)c4ccc(O)c(CC=C(C)C)c4)c(=O)oc3c2C)OC1(C)C | 90.9
